According to ChEMBL document CHEMBL3885881, “DrugMatrix”:

Species on record: Rattus norvegicus
Assay: DrugMatrix - Regimen: Daily Repeat
Assay type: toxicity, organism-based, Sprague-Dawley
Parameters: regimen Daily Repeat, gender Male, age 6-8 weeks
Conditions: in vivo, po, route oral GAVAGE, vehicle .5 % CMC; for ABSOLUTE BASOPHIL / ABSOLUTE EOSINOPHIL / ABSOLUTE LYMPHOCYTE / ABSOLUTE MONOCYTE / ABSOLUTE SEGMENTED NEUTROPHIL / BASOPHIL / EOSINOPHIL / ERYTHROCYTE COUNT / HEMATOCRIT / HEMOGLOBIN / LEUKOCYTE COUNT / LYMPHOCYTE / MEAN CORPUSCULAR HEMOGLOBIN / MEAN CORPUSCULAR HEMOGLOBIN CONCENTRATION / MEAN CORPUSCULAR VOLUME / MONOCYTE / NEUTROPHIL / NUCLEATED RED BLOOD CELLS / PLATELET COUNT: tissue Blood; for ALANINE AMINOTRANSFERASE / ALBUMIN / ALKALINE PHOSPHATASE / ASPARTATE AMINOTRANSFERASE / BLOOD UREA NITROGEN / CARBON DIOXIDE / CHLORIDE / CHOLESTEROL / CREATINE PHOSPHOKINASE / CREATININE / GLUCOSE / LACTATE DEHYDROGENASE / LIPASE / PHOSPHORUS / POTASSIUM / SODIUM / TOTAL BILIRUBIN / TOTAL PROTEIN / URIC ACID: tissue Plasma
[1] = 10 mg/kg, 72 h, dose level Low, time 3 day
[2] = 10 mg/kg, 120 h, dose level Low, time 5 day
[3] = 1200 mg/kg, 72 h, dose level High, time 3 day
[4] = 1200 mg/kg, 120 h, dose level High, time 5 day

## CC(C)c1nc(CN(C)C(=O)N[C@H](C(=O)N[C@@H](Cc2ccccc2)C[C@H](O)[C@H](Cc2ccccc2)NC(=O)OCc2cncs2)C(C)C)cs1 [RITONAVIR]
[1]
  ABSOLUTE BASOPHIL: 0 CELLS/uL
  ABSOLUTE EOSINOPHIL: 0 CELLS/uL
  ABSOLUTE LYMPHOCYTE: 16363 CELLS/uL
  ABSOLUTE MONOCYTE: 133.67 CELLS/uL
  ABSOLUTE SEGMENTED NEUTROPHIL: 2103.33 CELLS/uL
  BASOPHIL: 0%
  EOSINOPHIL: 0%
  ERYTHROCYTE COUNT: 5.55 x10E6/uL
  HEMATOCRIT: 35.17%
  HEMOGLOBIN: 13.33 G/DL
  LEUKOCYTE COUNT: 18.6 x10E3/uL
  LYMPHOCYTE: 88%
  MEAN CORPUSCULAR HEMOGLOBIN: 24.03 pg
  MEAN CORPUSCULAR HEMOGLOBIN CONCENTRATION: 37.93 G/DL
  MEAN CORPUSCULAR VOLUME: 63.37 fL
  MONOCYTE: 0.67%
  NEUTROPHIL: 11.33%
  NUCLEATED RED BLOOD CELLS: 0 /100WBC
  PLATELET COUNT: 1318 x10E3/uL
  ALANINE AMINOTRANSFERASE: 56.67 u/L
  ALBUMIN: 4.1 G/DL
  ALKALINE PHOSPHATASE: 325.33 u/L
  ASPARTATE AMINOTRANSFERASE: 93.33 u/L
  BLOOD UREA NITROGEN: 14 mg/dL
  CARBON DIOXIDE: 29 mmol/L
  CHLORIDE: 101 MEQ/L
  CHOLESTEROL: 90.67 mg/dL
  CREATINE PHOSPHOKINASE: 297.33 u/L
  CREATININE: 0.23 mg/dL
  GLUCOSE: 152 mg/dL
  LACTATE DEHYDROGENASE: 319.33 u/L
  LIPASE: 10.67 u/L
  PHOSPHORUS: 12.83 mg/dL
  POTASSIUM: 6.89 MEQ/L
  SODIUM: 145.67 MEQ/L
  TOTAL BILIRUBIN: 0.13 mg/dL
  TOTAL PROTEIN: 5.77 G/DL
  URIC ACID: 1.67 mg/dL
[2]
  ABSOLUTE BASOPHIL: 0 CELLS/uL
  ABSOLUTE EOSINOPHIL: 71.67 CELLS/uL
  ABSOLUTE LYMPHOCYTE: 18278.33 CELLS/uL
  ABSOLUTE MONOCYTE: 105.33 CELLS/uL
  ABSOLUTE SEGMENTED NEUTROPHIL: 1678 CELLS/uL
  BASOPHIL: 0%
  EOSINOPHIL: 0.33%
  ERYTHROCYTE COUNT: 6.19 x10E6/uL
  HEMATOCRIT: 37%
  HEMOGLOBIN: 13.97 G/DL
  LEUKOCYTE COUNT: 20.13 x10E3/uL
  LYMPHOCYTE: 90.33%
  MEAN CORPUSCULAR HEMOGLOBIN: 22.63 pg
  MEAN CORPUSCULAR HEMOGLOBIN CONCENTRATION: 37.73 G/DL
  MEAN CORPUSCULAR VOLUME: 59.93 fL
  MONOCYTE: 0.67%
  NEUTROPHIL: 8.67%
  NUCLEATED RED BLOOD CELLS: 0 /100WBC
  PLATELET COUNT: 1433.33 x10E3/uL
  ALANINE AMINOTRANSFERASE: 50.67 u/L
  ALBUMIN: 4.4 G/DL
  ALKALINE PHOSPHATASE: 359.67 u/L
  ASPARTATE AMINOTRANSFERASE: 81.67 u/L
  BLOOD UREA NITROGEN: 15.33 mg/dL
  CARBON DIOXIDE: 27.67 mmol/L
  CHLORIDE: 102 MEQ/L
  CHOLESTEROL: 79.67 mg/dL
  CREATINE PHOSPHOKINASE: 237 u/L
  CREATININE: 0.21 mg/dL
  GLUCOSE: 148.67 mg/dL
  LACTATE DEHYDROGENASE: 188 u/L
  LIPASE: 9.33 u/L
  PHOSPHORUS: 13.17 mg/dL
  POTASSIUM: 6.85 MEQ/L
  SODIUM: 145.83 MEQ/L
  TOTAL BILIRUBIN: 0.17 mg/dL
  URIC ACID: 1.63 mg/dL
[3]
  ABSOLUTE BASOPHIL: 0 CELLS/uL
  ABSOLUTE EOSINOPHIL: 142.67 CELLS/uL
  ABSOLUTE LYMPHOCYTE: 15572 CELLS/uL
  ABSOLUTE MONOCYTE: 334 CELLS/uL
  ABSOLUTE SEGMENTED NEUTROPHIL: 651.33 CELLS/uL
  BASOPHIL: 0%
  EOSINOPHIL: 0.67%
  ERYTHROCYTE COUNT: 5.91 x10E6/uL
  HEMATOCRIT: 36.97%
  HEMOGLOBIN: 14.63 G/DL
  LEUKOCYTE COUNT: 16.7 x10E3/uL
  LYMPHOCYTE: 93.67%
  MEAN CORPUSCULAR HEMOGLOBIN: 24.77 pg
  MEAN CORPUSCULAR HEMOGLOBIN CONCENTRATION: 39.6 G/DL
  MEAN CORPUSCULAR VOLUME: 62.53 fL
  MONOCYTE: 2%
  NEUTROPHIL: 3.67%
  NUCLEATED RED BLOOD CELLS: 0 /100WBC
  PLATELET COUNT: 1284 x10E3/uL
  ALANINE AMINOTRANSFERASE: 50 u/L
  ALBUMIN: 3.97 G/DL
  ALKALINE PHOSPHATASE: 314 u/L
  ASPARTATE AMINOTRANSFERASE: 75 u/L
  BLOOD UREA NITROGEN: 13.67 mg/dL
  CARBON DIOXIDE: 31.67 mmol/L
  CHLORIDE: 100.33 MEQ/L
  CHOLESTEROL: 86.67 mg/dL
  CREATINE PHOSPHOKINASE: 162.33 u/L
  CREATININE: 0.16 mg/dL
  GLUCOSE: 153.67 mg/dL
  LACTATE DEHYDROGENASE: 134.67 u/L
  LIPASE: 10.33 u/L
  PHOSPHORUS: 11.4 mg/dL
  POTASSIUM: 5.99 MEQ/L
  SODIUM: 144.87 MEQ/L
  TOTAL BILIRUBIN: 0.2 mg/dL
  TOTAL PROTEIN: 5.67 G/DL
  URIC ACID: 1.33 mg/dL
[4]
  ABSOLUTE BASOPHIL: 0 CELLS/uL
  ABSOLUTE EOSINOPHIL: 0 CELLS/uL
  ABSOLUTE LYMPHOCYTE: 16888.67 CELLS/uL
  ABSOLUTE MONOCYTE: 206.67 CELLS/uL
  ABSOLUTE SEGMENTED NEUTROPHIL: 871.33 CELLS/uL
  BASOPHIL: 0%
  EOSINOPHIL: 0%
  ERYTHROCYTE COUNT: 6.28 x10E6/uL
  HEMATOCRIT: 37.7%
  HEMOGLOBIN: 14.77 G/DL
  LEUKOCYTE COUNT: 17.97 x10E3/uL
  LYMPHOCYTE: 94%
  MEAN CORPUSCULAR HEMOGLOBIN: 23.53 pg
  MEAN CORPUSCULAR HEMOGLOBIN CONCENTRATION: 39.17 G/DL
  MEAN CORPUSCULAR VOLUME: 60.2 fL
  MONOCYTE: 1%
  NEUTROPHIL: 5%
  NUCLEATED RED BLOOD CELLS: 0 /100WBC
  PLATELET COUNT: 1230 x10E3/uL
  ALANINE AMINOTRANSFERASE: 59.67 u/L
  ALBUMIN: 4 G/DL
  ALKALINE PHOSPHATASE: 219 u/L
  ASPARTATE AMINOTRANSFERASE: 104.67 u/L
  BLOOD UREA NITROGEN: 16 mg/dL
  CARBON DIOXIDE: 22.33 mmol/L
  CHLORIDE: 106 MEQ/L
  CHOLESTEROL: 79 mg/dL
  CREATINE PHOSPHOKINASE: 482 u/L
  CREATININE: 0.24 mg/dL
  GLUCOSE: 155.33 mg/dL
  LACTATE DEHYDROGENASE: 180.33 u/L
  LIPASE: 10.67 u/L
  PHOSPHORUS: 10.5 mg/dL
  POTASSIUM: 7.89 MEQ/L
  SODIUM: 148.6 MEQ/L
  TOTAL BILIRUBIN: 0.17 mg/dL
  TOTAL PROTEIN: 6.03 G/DL
  URIC ACID: 1.8 mg/dL
